# Source: ChEMBL document CHEMBL1201862, “PubChem BioAssay data set” (2004)
#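 Values below derive from 48-hour exposures of cells grown in 96-well plates, with endpoints linearly interpolated between the two concentrations bracketing the appropriate inhibition level. GI50 is the concentration that inhibits growth by half.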 Activity calls are given as the source filed them. Cut-off read from the data, not from the text of the source: active = GI50 up to about 1.1 µM and inactive = higher.
# Columns and labels:
# Assay in all cases: NCI-60 cell line screen, 48 h
# [1] = system: 786-0
# [2] = system: A498
# [3] = system: A549
# [4] = system: ACHN
# [5] = system: CAKI-1
# [6] = system: CCRF-CEM
# [7] = system: COLO 205
# [8] = system: DLD-1
# [9] = system: DMS-114
# [10] = system: DMS-273
# [11] = system: EKVX
# [12] = system: HCC 2998
# [13] = system: HCT-116
# [14] = system: HCT-15
# [15] = system: HL-60
# [16] = system: HOP-18
# [17] = system: HOP-62
# [18] = system: HOP-92
# [19] = system: HT-29
# [20] = system: IGROV-1
# [21] = system: K562
# [22] = system: KM-20L2
# [23] = system: KM12
# [24] = system: LOX IMVI
# [25] = system: LXFL 529
# [26] = system: M14
# [27] = system: M19-MEL
# [28] = system: MOLT-4
# [29] = system: Malme-3M
# [30] = system: NCI-H226
# [31] = system: NCI-H23
# [32] = system: NCI-H460
# [33] = system: NCI-H522
# [34] = system: OVCAR-3
# [35] = system: OVCAR-4
# [36] = system: OVCAR-5
# [37] = system: OVCAR-8
# [38] = system: RPMI-8226
# [39] = system: RXF 393
# [40] = system: RXF 631
# [41] = system: SF-268
# [42] = system: SF-295
# [43] = system: SF-539
# [44] = system: SK-MEL-28
# [45] = system: SK-MEL-2
# [46] = system: SK-MEL-5
# [47] = system: SK-OV-3
# [48] = system: SN12C
# [49] = system: SNB-19
# [50] = system: SNB-75
# [51] = system: SNB-78
# [52] = system: SR
# [53] = system: SW-620
# [54] = system: TK-10
# [55] = system: U-251
# [56] = system: UACC-257
# [57] = system: UACC-62
# [58] = system: UO-31
# [59] = system: XF498
structure (smiles),measurement,setting,value
COC(=O)CC1(O)C(=O)OCc2c1cc1n(c2=O)Cc2c-1nc1ccccc1c2OC (centres undefined),GI50,[1],0.136 µM (active)
same,GI50,[2],0.724 µM (active)
same,GI50,[3],0.238 µM (active)
same,GI50,[4],0.0689 µM (active)
same,GI50,[5],0.0673 µM (active)
same,GI50,[6],< 0.0171 µM (active)
same,GI50,[7],3.77 µM (inactive)
same,GI50,[8],27.4 µM (inactive)
same,GI50,[9],0.164 µM (active)
same,GI50,[10],0.042 µM (active)
same,GI50,[11],11.1 µM (inactive)
same,GI50,[12],3.71 µM (inactive)
same,GI50,[13],0.388 µM (active)
same,GI50,[14],4.61 µM
same,GI50,[15],0.0959 µM (active)
same,GI50,[16],0.522 µM (active)
same,GI50,[17],0.0461 µM (active)
same,GI50,[18],12.3 µM (inactive)
same,GI50,[19],2.17 µM (inactive)
same,GI50,[20],2.94 µM (inactive)
same,GI50,[21],0.918 µM (active)
same,GI50,[22],1.95 µM (inactive)
same,GI50,[23],5.27 µM (inactive)
same,GI50,[24],0.0993 µM (active)
same,GI50,[25],23.2 µM (inactive)
same,GI50,[26],0.188 µM (active)
same,GI50,[27],1.19 µM (inactive)
same,GI50,[28],0.017 µM (active)
same,GI50,[29],3.3 µM (inactive)
same,GI50,[30],0.115 µM (active)
same,GI50,[31],0.188 µM (active)
same,GI50,[32],0.0185 µM (active)
same,GI50,[33],0.29 µM (active)
same,GI50,[34],3.86 µM (inactive)
same,GI50,[35],4.82 µM (inactive)
same,GI50,[36],0.902 µM (active)
same,GI50,[37],0.726 µM (active)
same,GI50,[38],0.582 µM (active)
same,GI50,[39],0.508 µM (active)
same,GI50,[40],1.63 µM (inactive)
same,GI50,[41],0.133 µM (active)
same,GI50,[42],0.151 µM (active)
same,GI50,[43],0.111 µM (active)
same,GI50,[44],27.5 µM (inactive)
same,GI50,[45],16.1 µM (inactive)
same,GI50,[46],0.358 µM (active)
same,GI50,[47],0.266 µM (active)
same,GI50,[48],0.097 µM (active)
same,GI50,[49],0.6 µM (active)
same,GI50,[50],0.232 µM (active)
same,GI50,[51],26 µM (inactive)
same,GI50,[52],< 0.01 µM (active)
same,GI50,[53],0.515 µM (active)
same,GI50,[54],> 43.6 µM (inactive)
same,GI50,[55],0.0964 µM (active)
same,GI50,[56],5.38 µM (inactive)
same,GI50,[57],0.0869 µM (active)
same,GI50,[58],1.04 µM (active)
same,GI50,[59],13.3 µM (inactive)
